# Data taken from ChEMBL document CHEMBL1136693, “Aryl tetrahydropyridine inhibitors of farnesyltransferase: glycine, phenylalanine and histidine derivatives” (Bioorg Med Chem Lett, 2003).
# Molecular target: Protein farnesyltransferase (Homo sapiens, UniProt P49354+P49356)
# Test: In vitro inhibitory activity against farnesyl transferase
# Assay type: protein-complex assay
row,IC50 [nM],Compound
1,280,Cn1cncc1CN(CC(=O)N1CCC(C#N)=C(c2cccc3ccccc23)C1)Cc1ccccc1
2,0.71,CSCC[C@H](NC(=O)C1=C(c2ccccc2C)CN(C(=O)OC(CCC2CCCCC2)c2cncs2)CC1)C(=O)O (some centres not stated)
3,240,Cn1cncc1CN[C@H](Cc1ccc(C#N)cc1)C(=O)N1CCC(C#N)=C(c2cccc3ccccc23)C1
4,560,Cn1cncc1CN(CC(=O)N1CCC(C#N)=C(c2cccc3ccccc23)C1)Cc1ccc(C#N)cc1
5,310,Cn1cncc1CN[C@@H](Cc1ccc(C#N)cc1)C(=O)N1CCC(C#N)=C(c2cccc3ccccc23)C1
6,130,Cn1cncc1C[C@H](NCc1ccc(C#N)cc1)C(=O)N1CCC(C#N)=C(c2cccc3ccccc23)C1
7,0.56,CSCC[C@H](NC(=O)C1=C(c2ccccc2C)CN(C(=O)N(Cc2ccccc2)Cc2cncs2)CC1)C(=O)O

# Molecular target: Geranylgeranyl transferase type I (Homo sapiens, UniProt P49354+P53609)
# Test: In vitro inhibitory activity against geranylgeranyltransferase-1 (type I)
# Assay type: protein-complex assay
row,IC50 [nM],Compound
1,3500,Cn1cncc1C[C@@H](NCc1ccc(C#N)cc1)C(=O)N1CCC(C#N)=C(c2cccc3ccccc23)C1

# Molecular target: Protein farnesyl/geranylgeranyl transferase (Homo sapiens) (UniProt P49354+P49356+P53609)
# Test: Selectivity for farnesyl over geranylgeranyl transferase
# Assay type: protein-complex assay
row,Selectivity,Compound
1,75000,CCCCN(CCC1CCCCC1)Cc1ccc(C(=O)N[C@@H](CCSC)C(=O)O)c(-c2ccccc2C)c1

# Molecular target: Protein farnesyltransferase (Mus musculus, UniProt Q61239+Q8K2I1)
# Test: Inhibition of Ras farnesylation in Human Ha-Ras-transformed BALB/c 3T3 cells
# Assay type: functional, cell-based
row,EC50 [nM],Compound
1,190,Cn1cncc1C[C@@H](NCc1ccc(C#N)cc1)C(=O)N1CCC(C#N)=C(c2cccc3ccccc23)C1
2,16,CCCCN(CCC1CCCCC1)Cc1ccc(C(=O)N[C@@H](CCSC)C(=O)O)c(-c2ccccc2C)c1
3,> 100,CN(Cc1ccc(C#N)cc1)[C@H](Cc1cncn1C)C(=O)N1CCC(C#N)=C(c2cccc3ccccc23)C1
